Assays:
[1] = Displacement of 125 I-gastrin from gastrin receptor of guinea pig gastric glands
[2] = Displacement of [125 I] CCK-8 from Cholecystokinin type B receptor of guinea pig cerebral cortex
[3] = Displacement of 125 I-gastrin from gastrin receptor of guinea pig gastric glands; remark: listed apart in the source

Row | SMILES | IC50 [1] | IC50 [2] | IC50 [3]
1 | CCOC(=O)CN1C(=O)C(NC(=O)Nc2ccc(Cl)cc2)N=C(c2ccccc2F)c2ccccc21 (centres undefined) | 4.1 nM |  | 
2 | O=C(Nc1ccc(Cl)cc1)NC1N=C(c2ccccc2F)c2ccccc2NC1=O (centres undefined) |  | 300 nM | 640 nM
3 | CN1C(=O)[C@@H](NC(=O)c2ccc(Cl)cc2)N=C(c2ccccc2F)c2ccccc21 |  | 2900 nM | 2500 nM
4 | CN1C(=O)[C@H](NC(=O)c2ccc(Cl)cc2)N=C(c2ccccc2F)c2ccccc21 | 7600 nM | 11000 nM | 
5 | CN1C(=O)C(NC(=O)Nc2ccc(Cl)cc2)N=C(c2ccccc2)c2ccccc21 [(R)-1-(4-Chloro-phenyl)-3-(1-methyl-2-oxo-5-phenyl-2,3-dihydro-1H-benzo[e][1,4]diazepin-3-yl)-urea] | 22 nM | 23 nM | 

— BindingDB's records for doi:10.1021/jm00121a004 (Merck Sharp & Dohme Research Laboratories, 1989)
